According to paper PMC12876990, “Targeting secreted PLA2 interactions with EGFR and vimentin to arrest prostate tumour growth” (Cell Death & Disease, 2025):
pIC50: −log10 of the molar value. Square brackets hold non-standard residues; d marks the D form. Peptide text beside a SMILES is read from it. 2Nal = N[C@@H](Cc1ccc2ccccc2c1)C(=O)O

Columns and labels:
[1] = Toxicity and serum enzyme levels in PCa xenograft model mice; format: in vivo
Experimental: Fig. 1 Derived from the structure of hGIIA, cF and c2 are orally absorbed, cell permeable and non-toxic. a Structure of hGIIA showing disulphide bonds (yellow) and the location of the peptide sequence ^70FLSYK^74 (cyan), which was cyclised to produce pentapeptide cF, then modified to produce c2. b Plasma concentrations of tritiated cF (red) and c2 (blue) following subcutaneous (sc) administration (circles) or oral (po) administration (squares) at 5 mg/kg to BALB/c mice (mean ± SE, n = 4 per time point). Tissue concentrations of c cF and d c2 following sc administration determined in the liver (blue) and kidney (brown) (mean ± SE). Dashed lines indicate estimated background levels of tritium in tissues due to tissue blood content (10% of peak plasma concentration). e–i Following po administration of c2 at 100 mg/kg to male rats (n = 5 per group), levels of c2 were measured in e plasma, f kidney, g faeces, h urine and i liver at timepoints indicated via LCMS/MS (mean ± SE). j Serum enzyme levels of markers of kidney function (creatinine), liver damage (AST and ALT) and heart damage (CK) in PCa xenograft model mice in response to treatment with vehicle (po, 3 x weekly for 6.1 ± 1.6 weeks), cF (10 mg/kg, po, 3 x weekly for 5.4 ± 0.9 weeks) or c2 (10 mg/kg, po, 3 x weekly for 4.8 ± 0.8 weeks) (n = 4, mean ± SE). Data were obtained by the South Eastern Area Laboratory Services Pathology Laboratory at Prince of Wales Hospital, Randwick, Australia. k PCa cell lines LNCaP, PC-3, and DU145 cells incubated with 100 µM c2 (green) for 24 hours with DAPI (blue), scale bar 10 µm (representative cells of n = 3 biological replicates, 5 cells per replicate).
A key failing of previous enzymatic inhibitors of hGIIA was toxicity, resulting in increased incidence of myocardial infarction in a phase III clinical trial. Thus, the toxicity profile of novel hGIIA inhibitors is critically important in evaluating new inhibitors. […] Extensive histopathology was performed on all animals in the control and high dose groups sacrificed on day 29, with no difference observed between the treated groups and the vehicle control group by any measure. […] In light of the toxicity associated with the myocardial infarction study, data from this c2 toxicity study relevant to heart toxicity are shown in Table 1. Heart wet weight was not affected by either low or high dose relative to vehicle, indicating the compound has no significant pro-hypertrophy effect at these doses. The lack of effect of c2 on gross necropsy or histopathology scores also supports the preclinical safety of the compound in the heart. Importantly, c2 has no effect on serum potassium levels or the Na/K ratio, since hypokalemia (low potassium) is highly arrythmogenic. […] It is of interest also that serum alanine transaminase is unaffected by c2 at the doses tested, since this marker was raised three-fold over the normal range in 6.3-fold more patients on varespladib than placebo in the VISTA acute coronary syndrome trial of this sPLA2 inhibitor [13].

[2] = target: T1, hGIIA/vimentin interaction (Homo sapiens, UniProt P08670); experiment: Enzyme immunoassay of hGIIA binding to vimentin coil 2; conditions: in vitro; read-out: IC50, inhibition of the interaction between hGIIA and vimentin
T1 construct: Purified vimentin fragments (full length or coil 2) were seeded to a 96-well microplate at 15 μg/mL; hGIIA purified in house from conditioned medium of CHO cell line 2B1
Experimental: Prior to assay, hGIIA antibody 4A1 was conjugated to alkaline phosphatase (4A1-AP), produced using the lightning-link conjugation kit (ab102850, Abcam) as per the manufacturer’s instructions.
Purified vimentin fragments (full length or coil 2) were seeded to a 96-well microplate at 15 μg/mL with a 100 μL/well volume. After an overnight incubation at 4 °C, the plate was emptied. Each well was then blocked overnight at 4 °C with 200 μL of 1% BSA in PBS. The plate was emptied and washed with PBST (PBS + 0.05% Tween20). hGIIA solution of 100 ng/mL in PBS with 0.1% BSA was prepared with and without inhibitors c2, Withaferin A and LY311727 in DMSO with concentrations 0.1-100 µM. hGIIA working solution with 0.4% DMSO served as a positive control and PBS with 0.1% BSA served as a negative control. A 100 μL volume of each prepared hGIIA-inhibitor mixture was added to wells in triplicate and incubated at 37 °C for two hours. The plate was washed twice with PBST, then incubated with the 4A1-AP conjugate at 1 μg/mL 0.1% BSA in PBS and incubated for one hour at 37 °C. Plates were then emptied and washed three times with PBST, followed by washing twice with carbonate buffer (8 mM Na2CO3, 36 mM NaHCO3, 2 mM MgCl2, pH 9.8), before incubation with AP substrate p-nitro-phenyl phosphate (PNPP) powder at 1 mg/mL concentration in carbonate buffer. The plate was incubated at 37 °C for 60 mins then absorbance was read at 405 nm by a Spectramax M2 plate reader. All washes were a 200 µL/well volume.

T1 sequence (P08670 269-407 limits assumed): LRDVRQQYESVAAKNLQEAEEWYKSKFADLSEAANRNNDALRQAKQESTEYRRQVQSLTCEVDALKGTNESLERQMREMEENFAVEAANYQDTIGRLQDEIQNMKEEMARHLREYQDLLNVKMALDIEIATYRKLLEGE

For `CC(C)C[C@@H]1NC(=O)[C@H](Cc2ccc3ccccc3c2)NC(=O)[C@H](CCCNC(=N)N)NC(=O)[C@H](Cc2ccc3ccccc3c2)NC(=O)[C@H](CO)NC1=O` [c2, cyclo-((2-Nal)-Leu-Ser-(2-Nal)-Arg)] (cyclo([2Nal]LS[2Nal]R)), the “serum creatinine, aspartate aminotransferase, alanine aminotransferase, creatine kinase levels” value ([1]; 10 mg/kg po thrice weekly) was “no significant changes”, the damage to organs ([1]; 10 mg/kg thrice weekly for 10 weeks) was “no observable damage to organs” and the gross toxicity ([1]; max dosages of 10 mg/kg thrice weekly for 10 weeks) was “No gross toxicity”. It also gave a pIC50 [2] of 4.25.
